What was measured:
[1] = test system: HEK-293 cells expressing P2X7 or P2X7-j; test: Cell selection: growth with BzATP and immunoblot of P2X7/P2X7-j protein, HEK-293; type: cell-based, human
Description: (§1) Growth of various cell lines expressing P2X7 and/or P2X7-j in the presence or absence of BzATP was performed to determine how P2X7 receptors may affect cell selection over time. FIG. 23. HEK-293 cells expressing P2X7, HEK-293 cells expressing P2X7-j, or HeLa cells, which express both P2X7 and P2X7-j were separately grown in culture, in the presence or absence of 50 micromolar BzATP for seven (7) days. At various time points, samples of the cells were taken and examined for expression of P2X7 and/or P2X7-j protein by immunoblotting using a P2X7-specific antibody. This antibody was obtained from Alomone Labs (Jerusalem, Israel) and was reactive with the extracellular domain of P2X7 protein. Amino acids 136-152 of the mouse P2X7 receptor ([…]; (SEQ ID NO:7)) were used as the antigen to prepare the antibody. A labeled secondary antibody was used to visualize reactive protein bands. By layering equal amounts of total protein (15 micrograms) it was possible to compare the relative expression of the P2X7 and/or P2X7-j proteins by the cells.

[2] = target: T1, P2X7 channel (MDCK cells expressing P2X7 or P2X7-j) (Homo sapiens, UniProt Q99572, R270H/Y155H); test: BzATP-stimulated channel activation (Fluo-4 calcium), MDCK cells; type: cell-based; conditions: MDCK-P2X7 cells; 100 micromolar BzATP
T1 construct: expressed in transfected cells; host or cells: MDCK (canine kidney), doxycycline-inducible promoter
T1 sequence (Q99572 whole entry Y155H/R270H): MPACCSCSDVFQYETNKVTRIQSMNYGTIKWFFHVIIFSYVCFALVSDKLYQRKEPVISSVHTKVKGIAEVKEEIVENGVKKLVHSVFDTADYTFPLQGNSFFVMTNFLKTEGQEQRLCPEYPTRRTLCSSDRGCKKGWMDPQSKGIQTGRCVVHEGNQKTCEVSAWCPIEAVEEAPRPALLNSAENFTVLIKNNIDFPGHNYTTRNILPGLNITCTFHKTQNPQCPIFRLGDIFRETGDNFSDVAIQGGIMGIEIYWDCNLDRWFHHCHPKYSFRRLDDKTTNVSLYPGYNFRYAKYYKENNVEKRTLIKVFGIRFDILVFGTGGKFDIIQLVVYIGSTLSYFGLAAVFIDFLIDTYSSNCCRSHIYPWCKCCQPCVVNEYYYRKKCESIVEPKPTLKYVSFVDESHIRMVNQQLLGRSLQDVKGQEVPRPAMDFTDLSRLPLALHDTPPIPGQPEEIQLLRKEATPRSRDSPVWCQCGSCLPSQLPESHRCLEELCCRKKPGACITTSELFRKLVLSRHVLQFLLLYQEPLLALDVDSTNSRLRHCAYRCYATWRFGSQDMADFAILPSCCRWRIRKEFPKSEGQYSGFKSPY
Description: (§2) 2′-3′-O-(4-benzoyl-benzoyl)adenosine 5′-triphosphate (BzATP) stimulated channel activation of P2X7 and P2X7-j was determined. FIG. 11. As discussed earlier, activation of P2X7 receptors provides influx of selected cations through the ATP-activated channel provided by the P2X7 protein. MDCK or HEK-293 cells expressing either P2X7 or P2X7-j were loaded with the calcium-sensitive dye Fluo-4 and treated with 100 micromolar of BzATP. Calcium entry into the cells via the P2X7 channel after BzATP activation was measured in terms of changes in Fluo-4 fluorescence.
(§3) A quantification of the changes in cytosolic calcium after BzATP exposure provided data that was similar to that presented in FIG. 11. FIG. 12.

[3] = target: T2, P2X7 channel (MDCK cells expressing P2X7 or P2X7-j) (Homo sapiens, UniProt Q99572, Y155H); test: as above; type: cell-based; conditions: MDCK-P2X7-j cells compared to MDCK-P2X7 cells
T2 construct: expressed in transfected cells; host or cells: MDCK (canine kidney), doxycycline-inducible promoter
T2 sequence (Q99572 1-258 isoform Q99572-9 Y155H): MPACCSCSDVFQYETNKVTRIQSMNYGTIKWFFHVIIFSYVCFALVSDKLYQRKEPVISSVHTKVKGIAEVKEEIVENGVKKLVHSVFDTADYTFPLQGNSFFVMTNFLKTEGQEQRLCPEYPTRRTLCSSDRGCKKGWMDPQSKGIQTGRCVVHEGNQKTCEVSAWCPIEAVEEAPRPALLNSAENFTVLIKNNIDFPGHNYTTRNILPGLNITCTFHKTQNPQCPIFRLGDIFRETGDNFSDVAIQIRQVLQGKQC
Description: as §2, §3

HeLa cells = test: Cell selection: growth with BzATP and immunoblot of P2X7/P2X7-j protein, HeLa; type: cell-based, human; conditions: 50 micromolar BzATP, seven days
Description: as §1

CaSki cells = test: DNA solubilization assay (apoptosis); type: cell-based, human
Description: Twenty-four hours before the end of the experiment, cells were labeled with [^3H]thymidine (specific activity, 93 Ci/mmol; 5 μCi/1×10^6 cells) for 16 h. The medium was removed, and cells were washed three times with fresh medium lacking [^3H]thymidine and were incubated in the same medium for an additional 6 h. At the end of incubation, the supernatant was stored, and cells were lysed in 0.5 ml lysis buffer (10 mM Tris-HCl, pH 7.5; plus 1 mM EDTA-0.2% Triton X-100) for 1 h at 4° C. The intact chromatin was separated from the fragmented DNA by 5 min centrifugation at 4° C. in Eppendorf microcentrifuge at 12,000×g. The supernatant (lysate) was stored, while the pellet was resuspended in 0.5 ml of 1% sodium dodecyl sulfate (SDS). The radioactivity contained in the supernatants, lysates; and pellets was counted in a scintillation counter, and DNA fragmentation was calculated as: [% Solubilized DNA]=([cpm supernatant+cpm lysates]/[cpm supernatant+cpm lysate+cpm pellet])×100.

[4] = test system: β-arrestin-2-GFP in CaSki cells; test: Real-time confocal microscopy of β-arrestin-2-GFP, CaSki cells; type: cell-based, human; conditions: CaSki transfected with β-arrestin-2-GFP; not shown
Description: CaSki cells transfected with the β-arrestin-2-GFP, or HEK-293 cells co-transfected with the full-length human P2X7-receptor and the β-arrestin-2-GFP were plated on 35-mm glass-bottom culture dishes (MatTek Corporation, Ashland, MA). Dishes contained a centered, 1 cm well formed from a glass coverslip sealed hole in the plastic. Two hours before experiments the medium was replaced with serum-free medium supplemented with 10 mM HEPES. The distribution of the β-arrestin-2-GFP was visualized before and after treatment with the agonist by real-time confocal microscopy. Imaging of the β-arrestin-2-GFP fluorescence in the same cells was performed on a Zeiss laser-scanning confocal microscope (LSM-510) using a heated (37° C.) microscope stage. Barak et al., “A beta-arrestin/green fluorescent protein biosensor for detecting G protein-coupled receptor activation” J Biol Chem 272:27497-27500 (1997).
Images were collected sequentially before and after treatment with agonist for 0-30 min at 37° C. using single line excitation (488 nm).

MDCK-P2X7 cells = test: Apoptosis, Cell Death Detection ELISA-PLUS, MDCK cells; type: cell-based, canine; conditions: doxycycline treated MDCK-P2X7 cells; BzATP 50 micromolar
Description: Baseline and BzATP-induced apoptosis in MDCK cells and in HEK-293 cells expressing P2X7 and P2X7-j proteins were studied. FIG. 17. […] Cells were treated with BzATP (50 micromolar) to activate the P2X7 receptors. Apoptosis was quantified using Cell Death Detection ELISA-PLUS photometric enzyme-immunoassay that determines cytoplasmic histone-associated-DNA-fragments (mono and oligonucleosomes) after spontaneous or induced cell death (Roche, Cat. No. 1774425, 96 tests). […] Expression of the P2X7-j proteins either had no effect (HEK-293 cells) or may have decreased apoptosis (MDCK cells).

For “2′-3′-O-(4-benzoylbenzoyl)adenosine 5′-triphosphate [BzATP]”, the “expression of the P2X7-j protein” value ([1]; HEK-293 cells expressing P2X7-j, continuous 50 micromolar BzATP) was “did not decrease the expression of the P2X7-j protein”, the “expression of the P2X7 protein” value ([1]; HEK-293 cells expressing P2X7, 50 micromolar BzATP, each day up to 7 days) was “less than in cells not treated with BzATP” and the “Fluo-4 signal (cytosolic calcium)” value [2] was “increased acutely the Fluo-4 signal”. For the same substance, the “calcium response to BzATP” value [3] was “significantly smaller”, the “expression of P2X7 protein” value (HeLa cells) was “significantly decreased” and the “expression of the P2X7-j protein” value (HeLa cells) was “remained stable”. The DNA solubilization (CaSki cells; 100 μM BzATP for 9 h, baseline 1.9%) was 7.8%, the DNA solubilization (CaSki cells; 100 μM BzATP for 9 h or 10 μM TNFα for 14 h) was “significantly increased DNA solubilization” and the “re-distribution of GFP fluorescence towards cell periphery” value [4] was “A similar effect was observed”. For the same substance, the apoptosis (MDCK-P2X7 cells) was “increased apoptosis”.
